US12351587B2, “Bicyclic compound as RIP-1 kinase inhibitor and application thereof” (MEDSHINE DISCOVERY INC., priority 2019, dated 2025)

Legend:
[1] = system: TNF-α/zVAD induced systemic inflammatory response syndrome (SIRS); test: Mouse model of TNF-α induced systemic inflammatory response syndrome (SIRS); assay type: in vivo; details: 10 mpk by gavage
Description: Assay Example 4: In Vivo Efficacy Study in Mouse Model of Tumor Necrosis Factor (TNF-α) Induced Systemic Inflammatory Response Syndrome (SIRS)
Instruments and Materials • 1) Electronic balance: Brand Changzhou Tianzhiping Instrument Equipment Co., Ltd., Model JY20002 • 2) Anal thermometer. Brand PHYSITEMP, model BAT-12 Formulation of Reagents • 1) TNF-α: TNF-α was centrifuged quickly (10000 rmp, 30 s) before opening the lid. One bottle of TNF-α (1 mg) was dissolved in 1 mL of sterile water to prepare a mother liquor with a concentration of 1 mg/mL. The mother liquor was stored at 4° C. and cm be stored for one week, 1000 μL of the mother liquor was weighed and added to 5667 μL of sterile water, and then 333 mg of trehalose was added and dissolved to prepare a working solution. • 2) zVAD: […] of zVAD was weighed and added to 480 μL of DMSO, and the mixture was vortexed, sonicated, and heated at 37° C., and then 15.52 mL of physiological saline was added. A working solution with a concentration of 1.25 mu/mL was prepared. Assay Steps • 1) The mice were reared adaptively for 3 days, and then randomly grouped into cages, 5 mice in each cage. Ear tags were cut. • 2) Firstly, the mice were given the corresponding compound by gavage according to their body weight, and then injected intraperitoneally with zVAD at a dose of 250 μg per mouse. After the intraperitoneal injection of zVAD, the anal temperature was measured immediately (0 h), and the time was recorded. The time when mice were given zVAD was defined as the 0th hour (0 h). • 3) After 15 minutes, TNF-α was injected through the tail vein at a dose of 200 μL per mouse, and then the anal temperature was measured 15 minutes later (0.5 h). • 4) After 1 h, zVAD was injected intraperitoneally at a dose of 125 μg per mouse, and then the anal temperature was measured immediately (1 h). The anal temperature was measured again at 2 h, 3 h, and 4 h.

RIP1 = target: T1, RIP1 (Homo sapiens, UniProt Q13546); test: Kinase selectivity assay (Eurofins, 33P radiolabeled kinase activity): RIP1; assay type: biochemical; details: WX009 1 μM, ATP 10 μM, read-out: Inhibition rate
T1 construct: purchased Eurofins Pharma Discovery Service
T1 sequence (Q13546 1-671): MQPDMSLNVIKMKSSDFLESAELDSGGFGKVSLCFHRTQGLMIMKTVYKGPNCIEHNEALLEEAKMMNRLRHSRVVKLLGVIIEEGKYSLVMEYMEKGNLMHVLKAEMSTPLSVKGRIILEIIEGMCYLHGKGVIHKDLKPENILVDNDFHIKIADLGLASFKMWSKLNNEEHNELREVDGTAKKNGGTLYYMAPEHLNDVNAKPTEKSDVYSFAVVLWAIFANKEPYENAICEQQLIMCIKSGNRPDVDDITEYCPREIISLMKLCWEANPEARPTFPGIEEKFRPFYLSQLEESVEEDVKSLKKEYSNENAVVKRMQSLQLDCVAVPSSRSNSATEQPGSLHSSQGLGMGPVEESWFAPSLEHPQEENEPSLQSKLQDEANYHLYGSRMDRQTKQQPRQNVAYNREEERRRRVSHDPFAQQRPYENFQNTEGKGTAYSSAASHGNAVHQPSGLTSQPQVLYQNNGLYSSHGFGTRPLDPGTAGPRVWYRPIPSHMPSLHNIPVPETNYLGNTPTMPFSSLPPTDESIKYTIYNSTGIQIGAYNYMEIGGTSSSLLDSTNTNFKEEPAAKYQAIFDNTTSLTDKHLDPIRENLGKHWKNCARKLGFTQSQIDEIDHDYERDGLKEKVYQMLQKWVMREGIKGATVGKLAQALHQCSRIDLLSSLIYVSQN
Description: The purpose of this assay was to detect the in vitro inhibitory activity of WX009 on a variety of kinases. The kinases used in this assay included 413 kinases, and the activity detection method was provided by Eurofins Pharma Discovery Service A method of detecting ^33P radiolabeled kinase activity was used for the assay. The concentration of WX009 was 1 μM, and the concentration of ATP was 10 μM.

[2] = Pharmacokinetic parameters in dogs; assay type: in vivo; details: beagle, plasma, dog
Description: Four healthy adult beagle dogs were selected and randomly divided into two groups. One group was given the assay compound by intravenous injection, and the other group was given the assay compound by gavage. Plasma samples were collected respectively from animals in the intravenous group and gavage group at 0.083, 0.25, 0.5, 1.0, 2.0, 4.0, 6.0, 8.0, 24 hours after administration. The blood concentration was determined by LC-MS/MS method. Relevant pharmacokinetic parameters were calculated by WinNonlin™ Version 6.3 (Pharsight. Mountain View, CA) pharmacokinetic software using non-compartmental model and linear logarithmic trapezoidal method. AUC0-last represents the area under the plasma concentration-time curve from zero time point to the last detectable concentration time point; Cmax represents the peak concentration; Tmax represents the time to reach the peak; T1/2 represents the half-life; CL represents the clearance rate; Vdss represents apparent volume of distribution; p.o. represents per os; i.v. represents intravenous injection; and F % represents oral bioavailability.

## CN1C(=S)[C@@H](NC(=O)c2ncn(Cc3ccccc3)n2)COc2cccnc21 [WX009]
[1]
  4-hour survival rate of animals: 100%
[1]; 1 hour
  Decrease in mouse body temperature: 0.94 °C
[1]; 2 hours
  Decrease in mouse body temperature: 1.2 °C
[1]; 3 hours
  Decrease in mouse body temperature: 1.42 °C
[1]; 4 hours
  Decrease in mouse body temperature: 1.52 °C
RIP1
  inhibition at 1 µM: > 80%
[2]; 3 mg/kg, iv = 3 mpk
  AUC(0-t): 20.8 µM·h
  clearance: 6.2 mL/min/kg
  half-life: 5.5 h
[2]; 3 mg/kg, iv = 3 mpk, read-out: Vdss
  Vd: 2.4 L/kg
[2]; 10 mg/kg, po = 10 mpk
  AUC(0-t): 23.6 µM·h
  Cmax: 284 nM
  Tmax: 2 h
[2]; po = 10 mpk vs iv = 3 mpk
  bioavailability: 34.2%
